The results in this text go back to US20260130925A1, “METHODS FOR TREATING CANCER” (Genesis Molecular AI, Inc., priority 2022, published 2026).

In this assay the target is T1, PI3Kα H1047R in T47D cells (Homo sapiens, UniProt P42336, H1047R).
T1 construct: endogenous in cells; host or cells: T47D
The assay is described as follows: PI3Kα cellular assay: T47D pAKT S473 HTRF. The class given is cell-based. The following applies: for T47D pAKT S473 HTRF IC50 (H1047R): T47D (H1047R) selectivity over SKBR3 (WT): T47D (H1047R) versus SKBR3 (WT) cells; for IC50: T47D cells (H1047R), serum starved, 1 hr compound, 20 ng/ml EGF 10 min. As to the method:
PI3Kα cellular assay experimental procedure: SKBR3 or T47D cells are seeded in DMEM containing 10% FBS at 25 k cells/well into 96-well cell culture format. Cells are incubated overnight at 37° C. in a 5% CO2 incubator and the following day cell media is aspirated, adherent cells are washed 1× with room temperature PBS prior to serum-free media application. Cells are returned to 37° C. 5% CO2 incubator and incubated a further 16 hrs. Compounds are added to serum starved adherent cells with a top dose of 10,000 nM and 3× multiple dose reductions for a minimum dose of 0.5 nM diluted in DMSO. Cell/compound incubation continues for 1 hr in a 37° C., 5% CO2 incubator prior to 10 minute PIK3CA stimulation with 20 ng/ml EGF. Cells treated with 0.1% DMSO and 20 ng/mL EGF are employed as negative control, cells treated with 10 uM Alpelisib and 20 ng/mL EGF are employed as a positive control. After 10 mins, plates are removed from incubator and cells are lysed with buffer and shaking 45 minutes. 20 μL of lysate is transferred to an opti-384 plate and 2.5 μl of Phospho-AKT d2 antibody with 2.5 μl of Phospho-AKT Eu Cryptate solution in the detection buffer are added to each well. 384 well plate is left overnight at room temperature before reading HTRF on an Envision plate reader.
Background: In TR-FRET formats the signal depends on donor and acceptor labels being close together.

T1 sequence (P42336 whole entry H1047R): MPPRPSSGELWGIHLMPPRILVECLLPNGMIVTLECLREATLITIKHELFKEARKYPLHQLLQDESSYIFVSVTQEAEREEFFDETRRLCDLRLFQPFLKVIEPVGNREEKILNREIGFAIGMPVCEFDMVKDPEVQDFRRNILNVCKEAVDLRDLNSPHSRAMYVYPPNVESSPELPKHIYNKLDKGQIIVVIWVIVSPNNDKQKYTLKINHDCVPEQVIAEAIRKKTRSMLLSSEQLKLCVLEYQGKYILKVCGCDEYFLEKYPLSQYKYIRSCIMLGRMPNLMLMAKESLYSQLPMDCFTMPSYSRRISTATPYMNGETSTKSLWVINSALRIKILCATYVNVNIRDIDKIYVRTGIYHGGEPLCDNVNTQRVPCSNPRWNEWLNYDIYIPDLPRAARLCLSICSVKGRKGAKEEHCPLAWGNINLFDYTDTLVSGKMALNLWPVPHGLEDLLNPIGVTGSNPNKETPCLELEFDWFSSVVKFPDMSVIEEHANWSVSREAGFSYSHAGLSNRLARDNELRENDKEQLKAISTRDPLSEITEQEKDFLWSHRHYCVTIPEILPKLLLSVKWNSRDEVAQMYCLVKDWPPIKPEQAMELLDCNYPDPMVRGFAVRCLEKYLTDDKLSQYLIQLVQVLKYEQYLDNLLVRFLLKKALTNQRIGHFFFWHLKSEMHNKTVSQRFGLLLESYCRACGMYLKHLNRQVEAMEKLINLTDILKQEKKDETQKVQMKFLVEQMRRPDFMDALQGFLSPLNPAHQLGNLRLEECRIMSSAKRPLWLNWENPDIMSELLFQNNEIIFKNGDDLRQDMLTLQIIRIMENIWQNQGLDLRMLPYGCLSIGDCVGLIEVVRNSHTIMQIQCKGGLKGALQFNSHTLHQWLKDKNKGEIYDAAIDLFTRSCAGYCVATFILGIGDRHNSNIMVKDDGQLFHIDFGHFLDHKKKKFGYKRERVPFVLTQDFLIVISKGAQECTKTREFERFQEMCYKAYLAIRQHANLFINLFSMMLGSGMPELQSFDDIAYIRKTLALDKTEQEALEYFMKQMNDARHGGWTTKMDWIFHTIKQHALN
T1 sequence (P27986 whole entry partner): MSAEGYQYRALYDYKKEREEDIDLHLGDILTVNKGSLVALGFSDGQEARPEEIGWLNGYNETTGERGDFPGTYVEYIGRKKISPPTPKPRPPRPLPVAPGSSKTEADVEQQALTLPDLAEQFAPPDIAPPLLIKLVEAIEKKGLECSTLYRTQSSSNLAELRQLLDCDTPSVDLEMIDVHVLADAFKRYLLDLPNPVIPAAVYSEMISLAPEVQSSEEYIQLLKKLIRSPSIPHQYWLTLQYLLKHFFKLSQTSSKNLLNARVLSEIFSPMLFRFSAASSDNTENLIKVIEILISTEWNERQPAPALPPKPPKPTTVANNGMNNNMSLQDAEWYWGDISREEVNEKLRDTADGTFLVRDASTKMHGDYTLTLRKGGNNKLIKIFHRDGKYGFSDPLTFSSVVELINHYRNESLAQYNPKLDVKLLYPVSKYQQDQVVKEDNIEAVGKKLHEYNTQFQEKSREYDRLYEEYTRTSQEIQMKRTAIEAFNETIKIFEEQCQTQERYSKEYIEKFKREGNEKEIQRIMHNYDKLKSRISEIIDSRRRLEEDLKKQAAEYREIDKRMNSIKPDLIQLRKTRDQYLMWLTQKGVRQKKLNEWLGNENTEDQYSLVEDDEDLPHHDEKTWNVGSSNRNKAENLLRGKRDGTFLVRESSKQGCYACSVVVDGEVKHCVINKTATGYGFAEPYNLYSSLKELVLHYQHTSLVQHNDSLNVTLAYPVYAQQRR

Regarding `Cc1cc([C@H](C)Nc2ccccc2C(=O)O)c2nc(N3CCC(C)(C)CC3)nc(N)c2c1` [Compound 1], the “T47D pAKT S473 HTRF IC50 (H1047R): T47D (H1047R) selectivity over SKBR3 (WT)” value is reported as “C (C denotes ≤5-fold)” and the IC50 (in general, the concentration that gives 50% inhibition) was at least 2000 nM.
The like results for `Cc1cc([C@@H](C)Nc2ccccc2C(=O)O)c2nc(N3CCC(C)(C)CC3)nc(N)c2c1` [Compound 2] were, in that order, “C (C denotes ≤5-fold)” and at least 2000 nM.
On the same counts, the results for `Cc1cc(C(C)Nc2ccccc2C(=O)O)c2nc(N3CCC(C)(C)CC3)nc(N)c2c1` (stereo not shown) [Compound 3] are “C (C denotes ≤5-fold)” and at least 2000 nM.
The like results for `Cc1cc([C@@H](C)Nc2ccccc2C(=O)O)c2nc(N3Cc4ccccc4C3)[nH]c(=O)c2c1` [Compound 4] were, in that order, “C (C denotes ≤5-fold)” and at least 2000 nM.
Regarding `Cc1cc(C(C)Nc2ccccc2C(=O)O)c2nc(N3Cc4ccccc4C3)[nH]c(=O)c2c1` (stereo not shown) [Compound 6], the “T47D pAKT S473 HTRF IC50 (H1047R): T47D (H1047R) selectivity over SKBR3 (WT)” value was “C (C denotes ≤5-fold)” and the IC50 is at least 2000 nM.
The like results for `Cc1cc([C@H](C)Nc2ccccc2C(=O)O)c2nc(N3CCC(C)(C)CC3)ncc2c1` [Compound 7] were, in that order, “C (C denotes ≤5-fold)” and at least 2000 nM.
On the same counts, the results for `Cc1cc(C(C)Nc2ccccc2C(=O)O)c2nc(-c3ccncc3)nc(O)c2c1` (stereo not shown) [Compound 9, 2-((1-(4-hydroxy-6-methyl-2-(pyridin-4-yl)quinazolin-8-yl)ethyl)amino)benzoic acid] are “B (B denotes 20-fold≥value>5-fold)” and under 750 nM.
The like results for `Cc1cc([C@H](C)Nc2ccccc2C(=O)O)c2nc(N3CCC(C)(C)CC3)nc(O)c2c1` [Compound 11] were, in that order, “B (B denotes 20-fold≥value>5-fold)” and 750 to 2000 nM.
For `Cc1cc([C@@H](C)Nc2ccccc2C(=O)O)c2nc(N3CCC(C)(C)CC3)nc(O)c2c1` [Compound 12], the “T47D pAKT S473 HTRF IC50 (H1047R): T47D (H1047R) selectivity over SKBR3 (WT)” value was “C (C denotes ≤5-fold)” and the IC50 was at least 2000 nM.
Take `Cc1cc([C@H](C)Nc2ccccc2C(=O)O)c2[nH]c(N3CCOCC3)nc(=O)c2c1` [Compound 17]: the “T47D pAKT S473 HTRF IC50 (H1047R): T47D (H1047R) selectivity over SKBR3 (WT)” value is given as “B (B denotes 20-fold≥value>5-fold)” and the IC50 was under 750 nM.
On the same counts, the results for `Cc1cc([C@@H](C)Nc2ccccc2C(=O)O)c2[nH]c(N3CCOCC3)nc(=O)c2c1` [Compound 18] are “C (C denotes ≤5-fold)” and at least 2000 nM.
On the same counts, the results for `Cc1cc(C(C)Nc2ccccc2C(=O)O)c2nc(N3CCC(C)(C)CC3)nc(NC(=O)CCl)c2c1` (stereo not shown) [Compound 21] are “C (C denotes ≤5-fold)” and at least 2000 nM.
In the case of `Cc1cc(C(C)Nc2ccccc2C(=O)O)c2nc(N3CCC(C)(C)CC3)nc(C(N)=O)c2c1` (stereo not shown) [Compound 23], the “T47D pAKT S473 HTRF IC50 (H1047R): T47D (H1047R) selectivity over SKBR3 (WT)” value was “C (C denotes ≤5-fold)” and the 50% inhibitory concentration (IC50) is at least 2000 nM.
On the same counts, the results for `Cc1cc(C(C)Nc2ccccc2C(=O)O)c2nc(N3Cc4ccccc4C3)nc(C(N)=O)c2c1` (stereo not shown) [Compound 24] are “A (A denotes >20-fold)” and under 750 nM.
`Cc1cc(C(C)Nc2ccccc2C(=O)O)c2nc(N3Cc4ccccc4C3)ccc2c1` (stereo not shown) [Compound 30]: the “T47D pAKT S473 HTRF IC50 (H1047R): T47D (H1047R) selectivity over SKBR3 (WT)” value is “B (B denotes 20-fold≥value>5-fold)” and the half-maximal inhibitory concentration (IC50) lay within 750 to 2000 nM.
Regarding `Cc1cc([C@@H](C)Nc2ccccc2C(=O)O)c2nc(N3Cc4ccccc4C3)ncc2c1` [Compound 35], the “T47D pAKT S473 HTRF IC50 (H1047R): T47D (H1047R) selectivity over SKBR3 (WT)” value is “C (C denotes ≤5-fold)” and the half-inhibitory concentration (IC50) is at least 2000 nM.
On to `Cc1cc([C@H](C)Nc2ccccc2C(=O)O)c2nc(N3Cc4ccccc4C3)ncc2c1` [Compound 36], for which the “T47D pAKT S473 HTRF IC50 (H1047R): T47D (H1047R) selectivity over SKBR3 (WT)” value is on record as “B (B denotes 20-fold≥value>5-fold)” and the concentration for half-maximal inhibition (IC50) was 750 to 2000 nM.
Take `Cc1cc([C@H](C)Nc2ccccc2C(=O)O)c2nc(-c3ccc(F)cc3)n(C)c(=O)c2c1` [Compound 39]: the “T47D pAKT S473 HTRF IC50 (H1047R): T47D (H1047R) selectivity over SKBR3 (WT)” value is “C (C denotes ≤5-fold)” and the IC50 was at least 2000 nM.
The like results for `Cc1cc(C(C)Nc2ccccc2C(=O)O)c2cc(N3Cc4ccccc4C3)nc(C#N)c2c1` (stereo not shown) [Compound 46] were, in that order, “C (C denotes ≤5-fold)” and at least 2000 nM.
The like results for `Cc1cc(C(C)Nc2ccccc2C(=O)O)c2cc(N3Cc4ccccc4C3)ncc2c1` (stereo not shown) [Compound 59] were, in that order, “B (B denotes 20-fold≥value>5-fold)” and 750 to 2000 nM.
For the compound `Cc1cc(C(C)Nc2ccccc2C(=O)O)c2nc(N3CCC(C)(C)CC3)nc(C#N)c2c1` (stereo not shown) [Compound 61], the “T47D pAKT S473 HTRF IC50 (H1047R): T47D (H1047R) selectivity over SKBR3 (WT)” value is on record as “A (A denotes >20-fold)” and the IC50 is under 750 nM.
On the same counts, the results for `Cc1cc(C(C)Nc2ccccc2C(=O)O)c2nc(N3Cc4ccccc4C3)nc(N3CC(O)C3)c2c1` (stereo not shown) [Compound 63, 2-((1-(4-(3-hydroxyazetidin-1-yl)-2-(isoindolin-2-yl)-6-methylquinazolin-8-yl)ethyl)amino)benzoic acid] are “B (B denotes 20-fold≥value>5-fold)” and 750 to 2000 nM.
The like results for `Cc1cc(C(C)Nc2ccccc2C(=O)O)c2nc(N3Cc4ccccc4C3)nc(NC3CC3O)c2c1` (stereo not shown) [Compound 65] were, in that order, “B (B denotes 20-fold≥value>5-fold)” and 750 to 2000 nM.
The like results for `Cc1cc(C(C)Nc2ccccc2C(=O)O)c2nc(N3Cc4ccccc4C3)nc(C3CC3O)c2c1` (stereo not shown) [Compound 69] were, in that order, “B (B denotes 20-fold≥value>5-fold)” and 750 to 2000 nM.
Regarding `Cc1cc(C(C)Nc2ccccc2C(=O)O)c2nc(N3Cc4ccccc4C3)nc(NC3COC3)c2c1` (stereo not shown) [Compound 71], the “T47D pAKT S473 HTRF IC50 (H1047R): T47D (H1047R) selectivity over SKBR3 (WT)” value is “C (C denotes ≤5-fold)” and the half-inhibitory concentration (IC50) was at least 2000 nM.
On the same counts, the results for `Cc1cc([C@@H](C)Nc2ccccc2C(=O)O)c2cc(-c3ccc4c(c3)c(C)nn4C)n(C)c(=O)c2c1` [Compound 86] are “A (A denotes >20-fold)” and under 750 nM.
On the same counts, the results for `Cc1cc(C(C)Nc2ccccc2C(=O)O)c2cc(-c3ccc4c(c3)c(C)nn4C)n(C)c(=O)c2c1` (stereo not shown) [Compound 87] are “A (A denotes >20-fold)” and under 750 nM.
Consider `Cc1cc([C@@H](C)Nc2ccccc2C(=O)O)c2cc(-c3ccnc(C4CC4)c3)ncc2c1` [Compound 89], for which the “T47D pAKT S473 HTRF IC50 (H1047R): T47D (H1047R) selectivity over SKBR3 (WT)” value was “A (A denotes >20-fold)” and the IC50 was under 750 nM.
On the same counts, the results for `Cc1cc(C(C)Nc2ccccc2C(=O)O)c2cc(OCc3ccccc3)nc(C(N)=O)c2c1` (stereo not shown) [Compound 128] are “A (A denotes >20-fold)” and under 750 nM.
The like results for `Cc1cc(C(C)Nc2ccccc2C(=O)O)c2cc(C3CCCOC3)ncc2c1` (stereo not shown) [Compound 131] were, in that order, “A (A denotes >20-fold)” and under 750 nM.
The like results for `Cc1cc([C@@H](C)Nc2ccccc2C(=O)O)c2cc(OC3CCOCC3)ncc2c1` [Compound 132] were, in that order, “A (A denotes >20-fold)” and under 750 nM.
Take `Cc1cc(C(C)Nc2ccccc2C(=O)O)c2nc(-c3ccc4c(c3)c(C)cn4C)n(C)c(=O)c2c1` (stereo not shown) [Compound 133]: the “T47D pAKT S473 HTRF IC50 (H1047R): T47D (H1047R) selectivity over SKBR3 (WT)” value was “A (A denotes >20-fold)” and the concentration for half-maximal inhibition (IC50) was under 750 nM.
The like results for `Cc1cc([C@@H](C)Nc2ccccc2C(=O)O)c2nc(-c3ccc4c(c3)c(C)cn4C)n(C)c(=O)c2c1` [Compound 134] were, in that order, “A (A denotes >20-fold)” and under 750 nM.
The like results for `Cc1cc([C@@H](C)Nc2ccccc2C(=O)O)c2nc(-c3ccc(C)nc3)n(C)c(=O)c2c1` [Compound 135] were, in that order, “A (A denotes >20-fold)” and under 750 nM.
The like results for `Cc1cc(C(C)Nc2ccccc2C(=O)O)c2nc(-c3ccc(C4CC4)nc3)n(C)c(=O)c2c1` (stereo not shown) [Compound 136] were, in that order, “A (A denotes >20-fold)” and under 750 nM.
For `Cc1cc([C@@H](C)Nc2ccccc2C(=O)O)c2nc(-c3cccnc3)n(C)c(=O)c2c1` [Compound 137], the “T47D pAKT S473 HTRF IC50 (H1047R): T47D (H1047R) selectivity over SKBR3 (WT)” value is “A (A denotes >20-fold)” and the IC50 was under 750 nM.
For `Cc1cc([C@@H](C)Nc2ccccc2C(=O)O)c2nc(-c3ccc(C#N)nc3)n(C)c(=O)c2c1` [Compound 138], the “T47D pAKT S473 HTRF IC50 (H1047R): T47D (H1047R) selectivity over SKBR3 (WT)” value was “A (A denotes >20-fold)” and the IC50 was under 750 nM.
The like results for `Cc1cc(C(C)Nc2ccccc2C(N)=O)c2nc(-c3cccnc3)n(C)c(=O)c2c1` (stereo not shown) [Compound 139] were, in that order, “B (B denotes 20-fold≥value>5-fold)” and 750 to 2000 nM.
